The compounds below were run against human HPK1 (MAP4K1) (Homo sapiens (Human), UniProt Q92918) (assay: HPK1 IC50 Assay (TR-FRET peptide phosphorylation)). Settings: recombinant HPK1 kinase domain 0.15 nM, 10 μM ATP, 1 μM STK S1 peptide; geometric mean of multiple experiments.
Assay type: biochemical
Procedure: The enzymatic activity of human HPK1 (MAP4K1) was monitored in a biochemical assay in the presence or absence of compounds and using a synthetic peptide substrate. An increase in phosphorylation of the peptide by HPK1 was indicative of its kinase activity.
Recombinant HPK1 kinase domain produced via baculovirus infection of insect cells was obtained from Proteros (Proteros Biostructures #PR-0322) and was pre-activated in the presence of 2 mM ATP (Sigma-Aldrich, cat #GE27-2056-01) and 2 mM magnesium chloride for 16 hours at 4° C. The protein reaction mixture was then loaded to a desalting column (Thermo Fisher Scientific, Cat #89889) to remove excess ATP. HPK1 was eluted with buffer containing 20 mM Tris (2-Amino-2-(hydroxymethyl)propane-1,3-diol) pH 8.0, 150 mM NaCl, 2 mM dithiothreitol and 5% glycerol, and was frozen at −80° C. for later use. HPK1 dual phosphorylation was confirmed by mass spectrometry.
Ten nanoliters of test compounds dissolved in DMSO at various concentrations were dispensed into a 384-well ProxiPlate (PerkinElmer #6008289). Five microliters of a solution of recombinant HPK1 diluted in HPK1 kinase assay buffer (50 mM BES [N,N-Bis(2-hydroxyethyl)-2-aminoethanesulfonic acid], pH 7.0; 10 mM magnesium chloride; 0.01% Triton X-100; 1 mM dithiothreitol; 0.01% bovine serum albumin; 0.1 mM sodium orthovanadate) was added to the compound-containing plate and was incubated for 15 minutes at 25° C. Five microliters of a mixture of ATP (Sigma-Aldrich #A6559) and peptide substrate STK S1 (Cisbio #61ST1BLC) diluted in HPK1 kinase assay buffer was then added to start the reaction. Final concentrations were 0.15 nM for HPK1, 10 μM for ATP, and 1 μM for the STK S1 peptide substrate. The reaction mixture was incubated at 25° C. for 3 hours and was stopped with the addition of 10 μl of an EDTA (Ethylenediaminetetraacetic acid)-containing detection buffer (Cisbio #62SDBRDF) supplemented with Europium cryptate-labeled anti-phospho-serine/threonine antibodies (Cisbio #62ST1PEJ) and XL665-labeled streptavidin (Cisbio #610SAXLG). The mixture was incubated for 16 hours at room temperature and peptide phosphorylation was measured by time-resolved fluorescence energy transfer (665 nm/620 nm) on an Envision plate reader (PerkinElmer).
Data in Table 1 were normalized based on positive (staurosporine) and negative (DMSO) controls. Least squares curve fittings were performed using a four-parameter variable slope nonlinear regression model. IC50 is defined as the concentration of compound required to inhibit 50% of maximum phosphorylation. IC50 values from multiple experiments were averaged by geometric mean and the standard deviation was calculated.

Sequence of human HPK1 (MAP4K1) (Q92918 17-274): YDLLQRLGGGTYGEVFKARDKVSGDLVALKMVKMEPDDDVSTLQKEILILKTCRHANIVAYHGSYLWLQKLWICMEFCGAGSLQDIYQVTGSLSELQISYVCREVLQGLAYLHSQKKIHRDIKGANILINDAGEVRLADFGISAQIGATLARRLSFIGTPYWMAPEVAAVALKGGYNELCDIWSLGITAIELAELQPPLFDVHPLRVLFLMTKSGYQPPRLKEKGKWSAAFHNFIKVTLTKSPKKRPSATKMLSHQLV

| SMILES | IC50 |
| --- | --- |
| Cc1ccc(Nc2nc(-c3ccc4c(c3)N([C@H]3C[C@@H](N5CCCCC5)C3)C(=O)C4(C)C)cc3ncn(C(C)C)c23)cc1C(=O)NCC(C)(F)F [Example 28] | 0.1 nM |
| Cc1ccc(Nc2nc(-c3ccc4c(c3)N([C@H]3C[C@@H](N5CCCCC5)C3)C(=O)C4(C)C)cc3ncn(C(C)C)c23)cc1C(=O)N[C@@H](C)CF [Example 29] | 0.1 nM |
| Cc1ccc(Nc2nc(-c3ccc4c(c3)N([C@H]3C[C@@H](N5CCCCC5)C3)C(=O)C4(C)C)cc3ncn(C(C)C)c23)cc1C(=O)N[C@H](C)CF [Example 30] | 0.1 nM |
| Cc1ccc(Nc2nc(-c3ccc4c(c3)N([C@H]3C[C@@H](N5CCCCC5)C3)C(=O)C4(C)C)cc3ncn(C(C)C)c23)cc1C(=O)NC(CF)CF [Example 31] | 0.08 nM |
| Cc1ccc(Nc2nc(-c3ccc4c(c3)N([C@H]3C[C@@H](N5CCCCC5)C3)C(=O)C43CCOCC3)cc3ncn(C(C)C)c23)cc1C(=O)NC1(C(F)F)CC1 [Example 32] | 0.08 nM |
| CNC(=O)c1cc(Oc2nc(-c3ccc4c(c3)N([C@H]3C[C@@H](N5CCCCC5)C3)C(=O)C4(C)C)cc3ncn(C4CC4)c23)ccc1C [Example 34] | 0.6 nM |
| CNC(=O)c1cc(Nc2nc(-c3ccc4c(c3)N([C@H]3C[C@@H](N5CCCCC5)C3)C(=O)C43CCOCC3)cc3ncn(C(C)C)c23)c(F)cc1C [Example 35] | 0.1 nM |
| Cc1ccc(Nc2nc(-c3ccc4c(c3)N([C@H]3C[C@@H](N5CCC[C@H](O)C5)C3)C(=O)C4(C)C)cc3ncn(C4CC4)c23)cc1C(N)=O [Example 36] | 0.1 nM |
| Cc1ccc(Nc2nc(-c3ccc4c(c3)N([C@H]3C[C@@H](N5CCC[C@@H](O)C5)C3)C(=O)C4(C)C)cc3ncn(C4CC4)c23)cc1C(N)=O [Example 37] | 0.1 nM |
| CNC(=O)c1cc(Nc2nc(-c3ccc4c(c3)N([C@H]3C[C@@H](N5CCCC(C)(C)C5)C3)C(=O)C4(C)C)cc3ncn(C4CC4)c23)ccc1C [Example 38] | 0.07 nM |
| CNC(=O)c1cc(Nc2nc(-c3ccc4c(c3)N([C@H]3C[C@@H](N5CCOCC5)C3)C(=O)C4(C)C)cc3ncn(C(C)C)c23)ccc1C [Example 39] | 0.1 nM |
| CNC(=O)c1cc(Nc2nc(-c3ccc4c(c3)N([C@H]3C[C@@H](N5CCCCC5)C3)C(=O)C4(C)C)cc3ncn(C4CC4)c23)ccc1Cl [Example 40] | 0.1 nM |
| CNC(=O)c1cc(Nc2nc(-c3ccc4c(c3)N([C@H]3C[C@@H](N5CCCCC5)C3)C(=O)C43CCN(C(=O)C45CC(C4)C5)CC3)cc3ncn(C4CC4)c23)ccc1Cl [Example 41] | 0.07 nM |
| CNC(=O)c1cc(Nc2nc(-c3ccc4c(c3)N([C@H]3C[C@@H](N5C[C@H]6CC[C@@H]5C6)C3)C(=O)C43CCN(C(=O)C4COC4)CC3)cc3ncn(C4CC4)c23)ccc1C [Example 42] | 0.06 nM |
| CNC(=O)c1cc(Nc2nc(-c3ccc4c(c3)N([C@H]3C[C@@H](N5C[C@H]6CC[C@@H]5C6)C3)C(=O)C43CCN(C(=O)C45CC(C4)C5)CC3)cc3ncn(C4CC4)c23)ccc1C [Example 43] | 0.08 nM |
| CNC(=O)c1cc(Nc2nc(-c3ccc4c(c3)N([C@H]3C[C@@H](N5C[C@H]6CC[C@@H]5C6)C3)C(=O)C43CCN(C(C)=O)CC3)cc3ncn(C4CC4)c23)ccc1C [Example 44] | 0.2 nM |
| CCC1(CC)C(=O)N([C@H]2C[C@@H](N3CCCCC3)C2)c2cc(-c3cc4ncn(C(C)C)c4c(Nc4ccc(C)c(C(=O)NC)c4)n3)ccc21 [Example 45] | 0.1 nM |
| CNC(=O)c1cc(Nc2nc(-c3ccc4c(c3)N([C@H]3C[C@@H](N5CCCCC5)C3)C(=O)C43CCN(C(C)=O)CC3)cc3ncn(C(C)C)c23)ccc1C [Example 46] | 0.1 nM |
| CNC(=O)c1cc(Nc2nc(-c3ccc4c(c3)N([C@H]3C[C@@H](N5CCCCC5)C3)C(=O)C43CCN(C(C)=O)CC3)cc3ncn(C4CC4)c23)ccc1Cl [Example 47] | 0.2 nM |
| CC[C@H](C)n1cnc2cc(-c3ccc4c(c3)N([C@H]3C[C@@H](N5CCCCC5)C3)C(=O)C43CCN(C(C)=O)CC3)nc(Nc3ccc(C)c(C(=O)NC)c3)c21 [Example 48] | 0.1 nM |
| CCn1cnc2cc(-c3ccc4c(c3)N([C@H]3C[C@@H](N5CCCCC5)C3)C(=O)C43CCN(C(C)=O)CC3)nc(Nc3ccc(C)c(C(=O)NC)c3)c21 [Example 49] | 0.1 nM |

| SMILES | IC50 |
| --- | --- |
| CNC(=O)c1cc(Nc2nc(-c3ccc4c(c3)N([C@H]3C[C@@H](N5CCCCC5)C3)C(=O)C43CCN(C(=O)OC)CC3)cc3ncn(C4CC4)c23)ccc1C [Example 50] | 0.1 nM |
| CNC(=O)c1cc(Nc2nc(-c3ccc4c(c3)N([C@H]3C[C@@H](N5CCCCC5)C3)C(=O)C43CCN(C(=O)C4CC4)CC3)cc3ncn(C4CC4)c23)ccc1C [Example 51] | 0.1 nM |
| CNC(=O)c1cc(Nc2nc(-c3ccc4c(c3)N([C@H]3C[C@@H](N5CCCCC5)C3)C(=O)C43CCN(C(=O)C(C)C)CC3)cc3ncn(C4CC4)c23)ccc1C [Example 52] | 0.09 nM |
| CCC(=O)N1CCC2(CC1)C(=O)N([C@H]1C[C@@H](N3CCCCC3)C1)c1cc(-c3cc4ncn(C(C)C)c4c(Nc4cc(C(=O)NC(C)C)c(C)cc4F)n3)ccc12 [Example 53] | 0.08 nM |
| CCn1cnc2cc(-c3ccc4c(c3)N([C@H]3C[C@@H](N5CCCCC5)C3)C(=O)C43CCN(C(C)=O)CC3)nc(Nc3cc(C(=O)NC(C)C)c(C)cc3F)c21 [Example 54] | 0.4 nM |
| Cc1cc(F)c(Nc2nc(-c3ccc4c(c3)N([C@H]3C[C@@H](N5CCCCC5)C3)C(=O)C43CCN(C(=O)C(C)(C)O)CC3)cc3ncn(C(C)C)c23)cc1C(=O)NC(C)C [Example 55] | 0.2 nM |
| CCNC(=O)c1cc(Nc2nc(-c3ccc4c(c3)N([C@H]3C[C@@H](N5CCCCC5)C3)C(=O)C43CCN(C(=O)CC)CC3)cc3ncn(CC)c23)c(F)cc1C [Example 56] | 0.3 nM |
| CNC(=O)c1cc(Nc2nc(-c3ccc4c(c3)N([C@H]3C[C@@H](N5CCCCC5)C3)CC4(C)C)cc3ncn(C(C)C)c23)ccc1C [Example 57] | 0.2 nM |
| CNC(=O)c1cc(Nc2nc(-c3ccc4c(c3)N([C@H]3C[C@@H](N5CCCCC5)C3)CC4(C)C)cc3ncn(C4CC4)c23)ccc1C [Example 58] | 0.6 nM |
| CNC(=O)c1cc(Nc2nc(-c3ccc4c(c3)N([C@H]3C[C@@H](N5CCCCC5)C3)C(=O)C43CCN(C(C)=O)CC3)cc3ncn(C4CC4)c23)ccc1C [Example 58a] | 0.1 nM |
| CC(=O)N1CCC2(CC1)C(=O)N([C@H]1C[C@@H](N3CCCCC3)C1)c1cc(-c3cc4ncn(C(C)C)c4c(Nc4cc(C(=O)NC(C)(C)C)c(C)cc4F)n3)ccc12 [Example 59] | 0.3 nM |
| CCNC(=O)c1cc(Nc2nc(-c3ccc4c(c3)N([C@H]3C[C@@H](N5CCCCC5)C3)C(=O)C43CCN(C(=O)CC)CC3)cc3ncn(C(C)C)c23)c(F)cc1C [Example 60] | 0.2 nM |
| CNC(=O)c1cc(Nc2nc(-c3ccc4c(c3)N([C@H]3C[C@@H](N5CCCCC5)C3)C(=O)C43CCN(CC(F)F)CC3)cc3ncn(C(C)C)c23)c(F)cc1C [Example 61] | 0.2 nM |
| Cc1ccc(Nc2nc(-c3ccc4c(c3)N([C@H]3C[C@@H](N5CCCCC5)C3)C(=O)C43CCN(CC(F)F)CC3)cc3ncn(C(C)C)c23)cc1C(=O)NC(C)C [Example 62] | 0.1 nM |
| CNC(=O)c1cc(Nc2nc(-c3ccc4c(c3)N([C@H]3C[C@@H](N5CCCCC5)C3)C(=O)C4(C)O)cc3ncn(C(C)C)c23)ccc1Cl (some centres unmarked) [Example 63] | 0.1 nM |
| Cc1c(C(=O)NC2(C(F)F)CC2)cc(Nc2nc(-c3cnc4c(c3)N([C@H]3C[C@@H](N5C[C@H]6CC[C@@H]5C6)C3)C(=O)C4(C)C)cc3ncn(C(C)C)c23)c(F)c1F [Example 64] | 0.1 nM |
| Cc1cc(F)c(Nc2nc(-c3ccc4c(c3)N([C@H]3C[C@@H](N5CCCCC5)C3)C(=O)C4(C)C)cc3ncn(C(C)C)c23)cc1C(=O)NC1(C(F)F)CC1 [Example 65] | 0.1 nM |
| Cc1cc(F)c(Nc2nc(-c3ccc4c(c3)N([C@H]3C[C@@H](N5C[C@H]6CC[C@@H]5C6)C3)C(=O)C4(C)C)cc3ncn(C(C)C)c23)cc1C(=O)NC1(C(F)F)CC1 [Example 66] | 0.09 nM |
| Cc1cc(F)c(Nc2nc(-c3cnc4c(c3)N([C@H]3C[C@@H](N5CCCCC5)C3)C(=O)C4(C)C)cc3ncn(C(C)C)c23)cc1C(=O)NC1(C(F)F)CC1 [Example 67] | 0.3 nM |
| CNC(=O)c1cc(Nc2nc(-c3ccc4c(c3)N([C@H]3C[C@@H](N5CCCCC5)C3)C(=O)C43CCN(C4COC4)CC3)cc3ncn(C(C)C)c23)c(F)cc1C [Example 68] | 0.2 nM |
